# Assay results taken from patent US7390462B2, “Ratiometric fluorescent pH sensor for non-invasive monitoring” (The University of Maryland Baltimore County, priority 2002, dated 2008).
# Like-named read-outs stand apart in the source and are kept apart here.
# How the values were obtained:
# [1] = physchem; type: physicochemical
# Description: Fluorescence measurements were recorded with a Varian Cary Eclipse fluorescence spectrophotometer. A solid sample/cuvette holder designed for front-face measurements was used to measure sensor patches that were fixed to the inside front wall of a PMMA disposable cuvette. Excitation light was fixed at an angle of incidence of 30°. Solutions were measured in regular 90° configuration. Cuvettes containing sensor patches were equilibrated in buffered saline solutions ranging in pH from 5 to 10. Uncorrected excitation and emission spectra were recorded for each sample. For comparison, solutions of DHDS and HPTS were also prepared and tested at the same pH values.
# FIG. 3 depicts the calibration curves of excitation intensity ratio versus pH for DHDS solution, HPTS solution and the immobilized HPDS. Sensors comprising HDPS-PEG layers were calibrated in buffered saline solutions that ranged in pH from 5 to 10. In each case, the appropriate buffering species, i.e., phosphate, tris or bicarbonate, was at 10 mM and the desired ionic strength, e.g., 20, 150 or 300 mM, was made up with sodium chloride salt. Cuvettes containing sensor patches were equilibrated in each solution. For comparison 1 μM solutions of DHDS and HPTS also were prepared and tested over the same pH range.
# Calibration curves for HPTS and MA-HPDS were fit to the following expression (25) describing intensity ratio (R) of monoprotic indicator dyes as a function of pH: R=([H^+]Rmax+ka,appRmin)/ka,app+[H^+] (1) where ka,app is the apparent dissociation constant of the immobilized dye. A least-squares linear regression was used to determine the parameters Rmin, Rmax and ka,app. The pka,app of the immobilized dye was calculated to be 7.61±0.05 for these conditions. This is in good agreement with the pka,app of HPTS in solution, which was calculated to be 7.72±0.02 under the same conditions.
# The modified dye is sensitive over the same range as HPTS. The calibration curve for DHDS was fit to an expression similar to that for monoprotic acids, but for diprotic acids. The second hydroxyl group causes DHD to be sensitive over an extended range with two dissociation constants calculated to be pka1,app=7.03±0.02 and pka1,app=9.05±0.02 under these conditions.
# [2] = cited from earlier work; for pKa: literature value
# [3] = literature (11); cited from earlier work
SMILES,pKa [1],pKa [2],other results
"O=S(=O)([O-])c1cc(S(=O)(=O)[O-])c2ccc3c(O)cc(O)c4ccc1c2c43.[Na+].[Na+] [DHDS, 6,8-dihydroxy-1,3-pyrenedisulfonic acid disodium salt]",,,"pka1,app (first dissociation constant) [1]: 7.03±0.02; pka1,app (second printed dissociation constant) [1]: 9.05±0.02; second pKa ([2]; literature value (9)): approximately 8.5"
"O=S(=O)([O-])c1cc(O)c2ccc3c(S(=O)(=O)[O-])cc(S(=O)(=O)[O-])c4ccc1c2c34.[Na+].[Na+].[Na+] [HPTS, 8-hydroxy-1,3,6-pyrene trisulphonic acid trisodium salt]",7.72 ± 0.02,approximately 7.3,toxicity [3]: low toxicity
"C=C(C)C(=O)Oc1cc(O)c2ccc3c(S(=O)(=O)O)cc(S(=O)(=O)O)c4ccc1c2c34 [MA-HPDS, 6-methacryloyl-8-hydroxy-1,3-pyrene disulfonic acid]",7.61 ± 0.05,,
O=C1OC2(c3cc(Cl)c(O)cc3Oc3cc(O)c(Cl)cc32)c2ccccc21 [dichlorofluorescein],,~4,
